Test results published in patent US9035074B2, “Pyrrolo[2,3-D]pyrimidine derivatives” (Pfizer Inc., priority 2013, dated 2015).

These compounds were tested against JAK3 (Homo sapiens (Human), UniProt P52333) (assay: JAK Caliper Enzyme Assay at 1 mM ATP (JAK3)).
Type: biochemical

Chain of JAK3 (P52333 whole entry, species assumed): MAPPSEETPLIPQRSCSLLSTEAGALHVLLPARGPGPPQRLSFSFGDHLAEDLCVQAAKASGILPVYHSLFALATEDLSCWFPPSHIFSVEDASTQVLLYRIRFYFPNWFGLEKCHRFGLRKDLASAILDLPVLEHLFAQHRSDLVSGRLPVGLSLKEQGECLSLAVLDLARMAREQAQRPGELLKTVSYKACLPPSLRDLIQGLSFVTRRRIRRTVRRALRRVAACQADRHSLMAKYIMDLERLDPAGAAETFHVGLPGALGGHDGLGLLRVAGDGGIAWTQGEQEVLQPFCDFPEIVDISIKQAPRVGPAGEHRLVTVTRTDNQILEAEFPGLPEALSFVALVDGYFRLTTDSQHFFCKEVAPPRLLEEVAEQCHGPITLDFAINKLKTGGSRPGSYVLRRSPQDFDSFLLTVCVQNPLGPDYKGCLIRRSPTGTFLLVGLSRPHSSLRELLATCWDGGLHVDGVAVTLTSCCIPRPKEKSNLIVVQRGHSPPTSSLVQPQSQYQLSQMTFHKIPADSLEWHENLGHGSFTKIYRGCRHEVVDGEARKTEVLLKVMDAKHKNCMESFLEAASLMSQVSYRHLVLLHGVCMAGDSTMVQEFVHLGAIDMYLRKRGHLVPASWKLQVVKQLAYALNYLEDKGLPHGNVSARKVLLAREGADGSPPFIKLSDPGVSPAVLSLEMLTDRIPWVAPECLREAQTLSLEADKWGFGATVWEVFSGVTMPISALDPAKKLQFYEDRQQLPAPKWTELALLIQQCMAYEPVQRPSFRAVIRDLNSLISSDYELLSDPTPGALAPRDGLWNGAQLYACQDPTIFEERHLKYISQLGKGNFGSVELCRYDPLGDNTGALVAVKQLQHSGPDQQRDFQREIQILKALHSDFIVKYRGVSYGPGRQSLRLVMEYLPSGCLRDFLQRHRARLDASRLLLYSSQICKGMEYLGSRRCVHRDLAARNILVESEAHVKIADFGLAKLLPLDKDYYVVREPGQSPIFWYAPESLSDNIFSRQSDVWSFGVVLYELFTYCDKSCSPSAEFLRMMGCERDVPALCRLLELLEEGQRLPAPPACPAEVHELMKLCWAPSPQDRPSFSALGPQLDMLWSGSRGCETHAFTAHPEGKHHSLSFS

| Compound | IC50 |
| --- | --- |
| CN(c1ncnc2[nH]ccc12)[C@H]1C[C@@H](NS(=O)(=O)[C@H]2C[C@](C)(CC#N)C2)C1 [Example 7B, trans-3-(cyanomethyl)-3-methyl-N-{cis-3-[methyl(7H-pyrrolo[2,3-d]pyrimidin-4-yl)amino]cyclobutyl}cyclo-butanesulfonamide] | > 10 µM |
| CN(c1ncnc2[nH]ccc12)[C@H]1C[C@@H](NS(=O)(=O)[C@H]2C[C@@H](CC#N)C2)C1 [Example 4A, cis-3-(cyanomethyl)-N-{cis-3-[methyl(7H-pyrrolo[2,3-d]pyrimidin-4-yl)amino]-cyclobutyl}cyclobutane-sulfonamide] | > 10 µM |
| CN(c1ncnc2[nH]ccc12)[C@H]1C[C@@H](CS(=O)(=O)CCC2CC2)C1 [Example 32, N-(cis-3-{[(2-Cyclopropylethyl)sulfonyl]methyl}cyclobutyl)-N-methyl-7H-pyrrolo[2,3-d]pyrimidin-4-amine] | > 10 µM |
| CN(c1ncnc2[nH]ccc12)[C@H]1C[C@@H](NS(=O)(=O)C2CN(C3CC3)C2)C1 [Example 15, 1-Cyclopropyl-N-{cis-3-[methyl(7H-pyrrolo[2,3-d]pyrimidin-4-yl)amino]cyclobutyl}azetidine-3-sulfonamide] | > 10 µM |
| CN(c1ncnc2[nH]ccc12)[C@H]1C[C@@H](NS(=O)(=O)N2CC[C@@H](C#N)C2)C1 (mixture of isomers) [Example 17A, (R)- and (S)-3-Cyano-N-{cis-3-[methyl(7H-pyrrolo[2,3-d]pyrimidin-4-yl)amino]cyclobutyl}pyrrolidine-1-sulfonamide] | > 10 µM |
| CN(c1ncnc2[nH]ccc12)[C@H]1C[C@@H](CS(=O)(=O)N2CCC(F)(F)CC2)C1 [Example 25, N-(cis-3-{[(4,4-Difluoropiperidin-1-yl)sulfonyl]methyl}cyclobutyl)-N-methyl-7H-pyrrolo[2,3-d]pyrimidin-4-amine] | > 10 µM |
| Cc1ncc(S(=O)(=O)N[C@H]2C[C@@H](N(C)c3ncnc4[nH]ccc34)C2)s1 [Example 38, 2-Methyl-N-{cis-3-[methyl(7H-pyrrolo[2,3-d]pyrimidin-4-yl)amino]cyclobutyl}-1,3-thiazole-5-sulfonamide] | > 10 µM |
| CN(c1ncnc2[nH]ccc12)[C@H]1C[C@@H](NS(=O)(=O)[C@H]2C[C@H](CC#N)C2)C1 [Example 4B, trans-3-(cyanomethyl)-N-{cis-3-[methyl(7H-pyrrolo[2,3-d]pyrimidin-4-yl)amino]cyclobutyl}-cyclobutanesulfonamide] | > 10 µM |
| CN(c1ncnc2[nH]ccc12)[C@H]1C[C@@H](NS(=O)(=O)[C@H]2C[C@@](C)(CC#N)C2)C1 [Example 7A, cis-3-(cyanomethyl)-3-methyl-N-{cis-3-[methyl(7H-pyrrolo[2,3-d]pyrimidin-4-yl)amino]cyclobutyl}-cyclo-butanesulfonamide] | > 10 µM |
| CN(c1ncnc2[nH]ccc12)[C@H]1C[C@@H](NS(=O)(=O)N2C[C@H]3C[C@@H](C2)O3)C1 [Example 19, N-{cis-3-[Methyl(7H-pyrrolo[2,3-d]pyrimidin-4-yl)amino]cyclobutyl}-6-oxa-3-azabicyclo[3.1.1]heptane-3-sulfonamide] | > 10 µM |
